Experimental data: ChEMBL document CHEMBL1201862, “PubChem BioAssay data set” (2004)
Calls of active or inactive are those of the source.

Legend:
[1] = A549 cell cytotoxicity, dose response, cytotoxicity control, plate reader, cherry-pick, antagonist series (AID 743412); type: functional, cell-based
[2] = LGR2 antagonists, dose response, cell-based, HEK293, CRE-luciferase reporter, cherry pick, set 2 (AID 743343); type: functional;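 also: transfected cells were stimulated with diluted bursicon conditioned medium after compound addition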
[3] = HepG2 cell cytotoxicity, dose response, cytotoxicity control, ATP luminescence, cherry-pick, activator set 2 (AID 1053143); type: functional, cell-based
[4] = HEK293 cell cytotoxicity, dose response, cytotoxicity control, plate reader, cherry-picked samples (AID 743446); type: functional, cell-based
[5] = HepG2 cell cytotoxicity, dose response, cytotoxicity control, plate reader, cherry-pick, antagonist series (AID 743416); type: functional, cell-based
[6] = MC4R antagonists, dose response, counter-screen for LGR2 antagonist project, cell-based, plate reader, cherry pick (AID 743444); type: functional;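 also: transfected HEK 293 cells stimulated with alpha-MSH peptide; potency of inhibitors of the alpha-MSH evoked signal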
[7] = target: 1-phosphatidylinositol 4,5-bisphosphate phosphodiesterase beta-3 (Homo sapiens, UniProt Q01970); experiment: Fluorescence-based biochemical high throughput dose response assay to identify inhibitors of phospholipase C isozymes (PLC-B3).
Nonstructural protein 1 = Nonstructural protein 1 (Influenza A virus, UniProt Q194T2); type: functional, Influenza A virus (A/California/07/2009(H1N1))
[8] = target: 1-phosphatidylinositol 4,5-bisphosphate phosphodiesterase gamma-1 (Homo sapiens, UniProt P19174); experiment: Counterscreen for inhibitors of phospholipase C isozymes (PLC-B3): Fluorescence-based biochemical high throughput dose response assay to identify inhibitors of phospholipase C isozymes (PLC-gamma1).
[9] = control 3'UTR Renilla luciferase suppression, dose response, counter-screen for Shn3 inhibitor project, cell-based, Clone20-Shn3RL, cherry-picked (AID 624133); type: functional
Protein Wnt-3a = Protein Wnt-3a (Mus musculus, UniProt P27467); experiment: Wnt3a-driven reporter signaling inhibition, dose response, selectivity assay for Gli-SUFU antagonist project, Wnt-LIGHT cells, luminescence (AID 651570); type: functional; conditions: read-out: IC50_Mean;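 also: Wnt-LIGHT reporter cells stimulated with conditioned medium from Wnt3a-producing cells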
[10] = target: COUP transcription factor 2 (Homo sapiens, UniProt P24468); experiment: Luminescence-based cell-based high throughput dose response assay to identify inhibitors of COUP-TFII (NR2F2).; type: functional;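 also: HEK293 cells transiently cotransfected with COUP-TFII expression vector and reporter; luciferase reporter luminescence driven by COUP-TFII from the pX2-168 reporter plasmid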
[11] = HepG2 cell cytotoxicity, dose response, cytotoxicity control for Shn3 inhibitor project, CellTiter-Glo, cherry-picked (AID 624134); type: functional, cell-based
[12] = target: T1, Sentrin-specific protease 6 (Homo sapiens, UniProt Q9GZR1); type: functional;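 also: Luminescence-based dose-response confirmatory assay of SENP6 inhibition, following up an ultra-high-throughput screen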
T1 sequence (Q9GZR1 whole entry): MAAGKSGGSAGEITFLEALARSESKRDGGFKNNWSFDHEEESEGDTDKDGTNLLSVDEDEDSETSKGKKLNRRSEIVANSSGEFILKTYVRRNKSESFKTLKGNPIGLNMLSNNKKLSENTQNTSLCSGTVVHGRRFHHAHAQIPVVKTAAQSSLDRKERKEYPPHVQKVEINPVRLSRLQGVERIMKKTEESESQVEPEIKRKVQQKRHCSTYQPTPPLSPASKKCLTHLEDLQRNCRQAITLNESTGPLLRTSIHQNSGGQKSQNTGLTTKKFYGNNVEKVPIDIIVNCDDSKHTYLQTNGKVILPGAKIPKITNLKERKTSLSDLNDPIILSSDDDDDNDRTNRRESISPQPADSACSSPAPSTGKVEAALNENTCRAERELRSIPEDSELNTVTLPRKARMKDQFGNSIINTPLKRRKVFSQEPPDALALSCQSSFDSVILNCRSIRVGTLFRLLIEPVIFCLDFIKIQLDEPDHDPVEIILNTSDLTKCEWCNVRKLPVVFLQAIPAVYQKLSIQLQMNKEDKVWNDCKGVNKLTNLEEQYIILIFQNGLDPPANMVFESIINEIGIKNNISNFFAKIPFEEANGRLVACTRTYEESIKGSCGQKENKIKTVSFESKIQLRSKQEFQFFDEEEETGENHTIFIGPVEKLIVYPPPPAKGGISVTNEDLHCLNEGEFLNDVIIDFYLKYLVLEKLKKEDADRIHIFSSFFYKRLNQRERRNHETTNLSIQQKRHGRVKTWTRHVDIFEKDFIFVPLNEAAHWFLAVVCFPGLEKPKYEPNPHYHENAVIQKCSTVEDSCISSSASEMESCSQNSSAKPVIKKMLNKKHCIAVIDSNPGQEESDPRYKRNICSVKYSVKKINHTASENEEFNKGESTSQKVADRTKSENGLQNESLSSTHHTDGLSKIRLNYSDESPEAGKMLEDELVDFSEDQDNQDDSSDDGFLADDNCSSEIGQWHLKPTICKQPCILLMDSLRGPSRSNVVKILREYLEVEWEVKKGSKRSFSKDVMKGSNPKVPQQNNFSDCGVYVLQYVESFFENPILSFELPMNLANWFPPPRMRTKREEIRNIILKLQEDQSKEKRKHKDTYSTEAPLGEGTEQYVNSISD

Caspase-3 = target: T2, Caspase-3 (Homo sapiens, UniProt P42574); type: functional;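 also: Dose-response selectivity test against caspase-3 for candidate inhibitors of sentrin-specific proteases (SENPs)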
T2 sequence (P42574 whole entry): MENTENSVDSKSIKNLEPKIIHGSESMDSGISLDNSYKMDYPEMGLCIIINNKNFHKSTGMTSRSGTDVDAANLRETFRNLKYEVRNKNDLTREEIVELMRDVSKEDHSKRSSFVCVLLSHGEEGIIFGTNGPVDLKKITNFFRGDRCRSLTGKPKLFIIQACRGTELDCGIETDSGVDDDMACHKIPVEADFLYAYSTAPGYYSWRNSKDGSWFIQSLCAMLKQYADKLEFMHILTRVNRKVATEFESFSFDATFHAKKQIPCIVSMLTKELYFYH

[13] = target: T3, Oxysterols receptor LXR-beta (Homo sapiens, UniProt P55055); type: functional, cell-based;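 also: agonist activity at LXR measured by a cell-based luminescence readout across a dose range, run as a counterscreen for daf-12 agonists; HEK293 cells with Gal4-LXR fusion and GAL4-driven luciferase reporter; potency for activation of Gal4-LXR reporter so compounds are agonists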
T3 sequence (P55055 whole entry): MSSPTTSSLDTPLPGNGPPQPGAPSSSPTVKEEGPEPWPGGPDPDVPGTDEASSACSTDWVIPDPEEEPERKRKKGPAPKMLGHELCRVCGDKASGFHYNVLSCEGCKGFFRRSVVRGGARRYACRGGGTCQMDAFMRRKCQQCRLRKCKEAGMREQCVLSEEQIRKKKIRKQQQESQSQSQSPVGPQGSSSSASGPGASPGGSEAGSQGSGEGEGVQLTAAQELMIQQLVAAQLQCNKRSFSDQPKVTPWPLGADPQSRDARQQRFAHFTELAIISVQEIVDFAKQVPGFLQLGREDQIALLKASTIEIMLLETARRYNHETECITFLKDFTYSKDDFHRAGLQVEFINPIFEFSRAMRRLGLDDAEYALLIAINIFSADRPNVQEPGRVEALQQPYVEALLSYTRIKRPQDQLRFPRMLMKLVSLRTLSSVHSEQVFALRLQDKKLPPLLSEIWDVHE

[14] = Luminescence Cell-Based Dose Response to Identify Activators of Luciferase Translation or Activity in H4-C Neuroglioblastoma Cells. [Related pubchem assays: 1829 (Project Summary), 1814 (Primary HTS)]; type: functional
[15] = target: T4, Sentrin-specific protease 8 (Homo sapiens, UniProt Q96LD8); type: functional;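 also: luminescence read-out of SENP8 inhibition, dose-response confirmation following an ultra-high-throughput screen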
T4 sequence (Q96LD8 whole entry): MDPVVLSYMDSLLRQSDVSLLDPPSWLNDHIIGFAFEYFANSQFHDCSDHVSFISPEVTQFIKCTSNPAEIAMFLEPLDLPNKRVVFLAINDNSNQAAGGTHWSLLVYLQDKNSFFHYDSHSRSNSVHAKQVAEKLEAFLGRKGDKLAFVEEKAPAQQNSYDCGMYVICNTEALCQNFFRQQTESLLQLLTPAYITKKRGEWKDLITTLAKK

H4 = experiment: Luminescence Cell-Based Dose Response HTS to Identify Activators of 5'UTR Stem-Loop Driven Prion Protein mRNA Translation in H4 Neuroglioblastoma Cells. [Related pubchem assays: 1829 (Project Summary), 1814 (Primary HTS)]; type: functional; conditions: Homo sapiens
[16] = Luminescence Cell-Based Dose Response to Identify Activators of 5'UTR Stem-Loop Driven Prion Protein mRNA Translation in H4-C Neuroglioblastoma Cells. [Related pubchem assays: 1829 (Project Summary), 1814 (Primary HTS)]; type: functional
[17] = Luminescence Cell-Based Dose Confirmation to Identify Activators of 5'UTR Stem-Loop Driven Alpha-Synuclein mRNA Translation in H4 Neuroglioblastoma Cells. [Related pubchem assays: 1829 (Project Summary), 1814 (Primary HTS)]; type: functional
[18] = Luminescence Cell-Based Dose Response HTS to Identify Activators of Luciferase Translation or Activity in H4 […] Cells. [Related pubchem assays: 1829 (Project Summary), 1814 (Primary HTS)]; type: functional
[19] = target: T5, Sentrin-specific protease 7 (Homo sapiens, UniProt Q9BQF6); type: functional;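 also: Luminescence-based dose-response confirmation of ultra-high-throughput screening hits, measuring inhibition of SENP7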
T5 sequence (Q9BQF6 whole entry): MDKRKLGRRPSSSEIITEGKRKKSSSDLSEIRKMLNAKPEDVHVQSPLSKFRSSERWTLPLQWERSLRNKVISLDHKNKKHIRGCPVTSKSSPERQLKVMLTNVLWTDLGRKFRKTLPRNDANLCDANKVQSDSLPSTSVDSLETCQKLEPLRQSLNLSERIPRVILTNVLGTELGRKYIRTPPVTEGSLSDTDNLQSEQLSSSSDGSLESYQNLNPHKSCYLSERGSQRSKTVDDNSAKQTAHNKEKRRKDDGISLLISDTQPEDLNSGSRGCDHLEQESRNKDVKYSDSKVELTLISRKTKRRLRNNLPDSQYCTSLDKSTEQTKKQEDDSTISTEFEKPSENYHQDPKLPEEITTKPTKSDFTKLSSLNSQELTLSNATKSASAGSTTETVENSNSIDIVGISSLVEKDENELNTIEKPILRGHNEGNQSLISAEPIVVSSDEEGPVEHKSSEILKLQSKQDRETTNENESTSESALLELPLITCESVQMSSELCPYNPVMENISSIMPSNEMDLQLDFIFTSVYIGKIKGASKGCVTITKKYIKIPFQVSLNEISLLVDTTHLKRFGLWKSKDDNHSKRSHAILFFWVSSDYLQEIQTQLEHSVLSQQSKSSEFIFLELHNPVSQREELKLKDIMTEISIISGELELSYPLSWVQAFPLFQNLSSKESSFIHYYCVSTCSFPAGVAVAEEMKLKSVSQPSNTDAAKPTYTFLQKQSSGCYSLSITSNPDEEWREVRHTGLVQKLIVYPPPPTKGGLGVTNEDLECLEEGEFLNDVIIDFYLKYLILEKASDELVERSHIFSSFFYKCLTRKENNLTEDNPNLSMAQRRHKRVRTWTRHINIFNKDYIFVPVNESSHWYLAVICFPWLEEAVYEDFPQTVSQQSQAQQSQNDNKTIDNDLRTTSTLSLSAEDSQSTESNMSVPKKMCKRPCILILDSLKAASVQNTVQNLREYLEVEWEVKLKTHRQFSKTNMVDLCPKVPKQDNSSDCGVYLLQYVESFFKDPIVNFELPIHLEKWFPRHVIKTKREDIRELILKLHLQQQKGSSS

Protein Wnt-3a, sequence (P27467 whole entry): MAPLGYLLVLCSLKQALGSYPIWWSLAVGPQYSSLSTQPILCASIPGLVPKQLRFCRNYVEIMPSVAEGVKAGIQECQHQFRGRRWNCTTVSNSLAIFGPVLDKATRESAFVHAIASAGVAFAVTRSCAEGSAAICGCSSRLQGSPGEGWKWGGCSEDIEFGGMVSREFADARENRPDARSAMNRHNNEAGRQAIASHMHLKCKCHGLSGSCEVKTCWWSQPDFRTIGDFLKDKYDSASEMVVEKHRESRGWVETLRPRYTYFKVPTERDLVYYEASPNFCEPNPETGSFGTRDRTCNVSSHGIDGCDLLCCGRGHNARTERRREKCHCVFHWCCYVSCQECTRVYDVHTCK
1-phosphatidylinositol 4,5-bisphosphate phosphodiesterase beta-3, sequence (Q01970 whole entry): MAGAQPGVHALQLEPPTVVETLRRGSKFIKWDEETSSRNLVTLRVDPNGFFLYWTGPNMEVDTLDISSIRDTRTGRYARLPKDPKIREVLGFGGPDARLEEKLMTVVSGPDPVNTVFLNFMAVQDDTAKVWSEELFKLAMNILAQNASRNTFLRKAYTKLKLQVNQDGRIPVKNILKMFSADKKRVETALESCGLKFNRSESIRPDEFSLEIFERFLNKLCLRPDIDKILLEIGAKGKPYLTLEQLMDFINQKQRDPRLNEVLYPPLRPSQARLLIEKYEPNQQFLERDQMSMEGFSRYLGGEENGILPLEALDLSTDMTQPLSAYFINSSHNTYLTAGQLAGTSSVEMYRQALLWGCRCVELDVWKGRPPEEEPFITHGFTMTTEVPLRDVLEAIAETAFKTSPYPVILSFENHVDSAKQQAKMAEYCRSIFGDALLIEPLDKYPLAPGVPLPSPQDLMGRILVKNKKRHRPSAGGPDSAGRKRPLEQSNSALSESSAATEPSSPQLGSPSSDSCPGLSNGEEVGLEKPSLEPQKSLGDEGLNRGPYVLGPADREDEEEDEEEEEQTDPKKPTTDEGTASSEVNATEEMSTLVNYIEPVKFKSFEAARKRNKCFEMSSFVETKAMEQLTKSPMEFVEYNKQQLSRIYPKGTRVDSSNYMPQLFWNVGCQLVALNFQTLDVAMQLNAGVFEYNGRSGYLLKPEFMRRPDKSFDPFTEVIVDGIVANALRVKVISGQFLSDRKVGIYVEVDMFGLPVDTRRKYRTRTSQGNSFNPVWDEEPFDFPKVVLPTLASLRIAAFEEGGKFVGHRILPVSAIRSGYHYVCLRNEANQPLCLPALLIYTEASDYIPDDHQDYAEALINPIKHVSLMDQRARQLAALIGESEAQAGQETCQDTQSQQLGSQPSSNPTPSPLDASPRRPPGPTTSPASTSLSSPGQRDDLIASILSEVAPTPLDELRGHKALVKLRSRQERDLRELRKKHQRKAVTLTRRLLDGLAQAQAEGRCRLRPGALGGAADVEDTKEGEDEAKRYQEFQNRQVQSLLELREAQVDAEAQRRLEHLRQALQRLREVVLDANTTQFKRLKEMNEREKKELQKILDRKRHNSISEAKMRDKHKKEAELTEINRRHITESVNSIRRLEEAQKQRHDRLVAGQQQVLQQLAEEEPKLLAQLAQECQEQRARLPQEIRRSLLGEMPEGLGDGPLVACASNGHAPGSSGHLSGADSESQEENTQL
COUP transcription factor 2, sequence (P24468 whole entry): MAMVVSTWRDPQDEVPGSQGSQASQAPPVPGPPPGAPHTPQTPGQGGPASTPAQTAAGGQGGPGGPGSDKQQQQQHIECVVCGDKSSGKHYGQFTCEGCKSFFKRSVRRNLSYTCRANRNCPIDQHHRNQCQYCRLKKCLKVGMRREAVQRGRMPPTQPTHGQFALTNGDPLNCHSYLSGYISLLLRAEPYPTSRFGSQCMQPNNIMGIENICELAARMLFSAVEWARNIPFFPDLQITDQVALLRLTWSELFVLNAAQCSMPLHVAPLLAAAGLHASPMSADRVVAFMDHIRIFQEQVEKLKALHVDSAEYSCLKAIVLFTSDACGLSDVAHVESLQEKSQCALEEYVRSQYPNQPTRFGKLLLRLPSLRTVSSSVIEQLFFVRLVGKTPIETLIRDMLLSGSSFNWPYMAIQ
1-phosphatidylinositol 4,5-bisphosphate phosphodiesterase gamma-1, sequence (P19174 whole entry): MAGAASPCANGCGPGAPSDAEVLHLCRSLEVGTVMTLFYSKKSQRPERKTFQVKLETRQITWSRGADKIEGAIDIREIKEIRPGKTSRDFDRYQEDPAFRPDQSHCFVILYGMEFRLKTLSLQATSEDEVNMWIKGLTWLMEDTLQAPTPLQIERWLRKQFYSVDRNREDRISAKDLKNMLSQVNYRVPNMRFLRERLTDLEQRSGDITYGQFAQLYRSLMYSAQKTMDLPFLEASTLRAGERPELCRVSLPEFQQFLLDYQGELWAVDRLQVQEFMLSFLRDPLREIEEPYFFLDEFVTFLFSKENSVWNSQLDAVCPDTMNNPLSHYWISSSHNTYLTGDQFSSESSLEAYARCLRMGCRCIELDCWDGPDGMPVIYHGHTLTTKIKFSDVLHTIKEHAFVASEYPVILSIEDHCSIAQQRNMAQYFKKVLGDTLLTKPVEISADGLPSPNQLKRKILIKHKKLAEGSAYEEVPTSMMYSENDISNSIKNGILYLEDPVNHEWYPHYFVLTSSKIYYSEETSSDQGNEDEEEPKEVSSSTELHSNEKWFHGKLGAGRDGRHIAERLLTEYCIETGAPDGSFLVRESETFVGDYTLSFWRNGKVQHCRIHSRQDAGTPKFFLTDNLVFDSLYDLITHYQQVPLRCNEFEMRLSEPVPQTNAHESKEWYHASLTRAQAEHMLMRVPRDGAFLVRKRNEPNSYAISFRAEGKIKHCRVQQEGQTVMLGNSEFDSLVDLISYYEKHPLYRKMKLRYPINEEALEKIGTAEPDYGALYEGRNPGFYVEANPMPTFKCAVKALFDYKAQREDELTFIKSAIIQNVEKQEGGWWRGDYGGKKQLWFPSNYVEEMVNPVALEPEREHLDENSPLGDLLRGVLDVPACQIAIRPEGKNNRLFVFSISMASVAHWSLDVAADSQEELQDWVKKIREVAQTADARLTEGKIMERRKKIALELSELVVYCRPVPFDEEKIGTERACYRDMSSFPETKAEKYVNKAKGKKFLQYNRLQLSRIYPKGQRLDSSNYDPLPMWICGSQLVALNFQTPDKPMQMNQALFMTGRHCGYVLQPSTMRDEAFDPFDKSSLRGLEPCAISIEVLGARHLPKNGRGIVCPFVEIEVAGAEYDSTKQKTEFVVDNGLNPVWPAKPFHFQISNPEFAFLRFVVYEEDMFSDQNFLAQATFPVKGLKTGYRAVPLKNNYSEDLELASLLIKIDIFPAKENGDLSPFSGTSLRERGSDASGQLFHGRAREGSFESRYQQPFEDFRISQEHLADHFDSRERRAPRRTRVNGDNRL
Nonstructural protein 1, sequence (Q194T2 whole entry): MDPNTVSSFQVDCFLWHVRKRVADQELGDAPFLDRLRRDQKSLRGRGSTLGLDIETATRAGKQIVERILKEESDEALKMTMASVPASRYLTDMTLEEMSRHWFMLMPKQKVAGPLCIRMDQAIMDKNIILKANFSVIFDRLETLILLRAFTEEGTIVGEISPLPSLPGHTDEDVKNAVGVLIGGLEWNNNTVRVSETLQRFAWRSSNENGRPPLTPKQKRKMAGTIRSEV

c1csc(-c2nc(CN3CCSCC3)cs2)c1
AC50 [1]: > 52 µM (inactive) | AC50 [2]: 18.8 µM (active) | AC50 [3]: 26 µM (active) | AC50 [4]: > 52 µM (inactive) | AC50 [5]: > 52 µM (inactive) | AC50 [6]: 14.8 µM (active)

Cc1ccc(S(=O)(=O)NC2=C(N3CCN(c4ccccc4F)CC3)C(=O)c3ccccc3C2=O)cc1
IC50 [7]: > 122 µM (inactive) | IC50 (Nonstructural protein 1): 32.5 µM (active) | IC50 [8]: > 122 µM (inactive)

CC[C@@H](O)C[C@H]1CCC[C@@]2(C[C@@H]3OC(=O)/C=C/[C@@](C)(O)[C@@H](O)[C@H](C)[C@@H](O)[C@H](OC4CCC(N(C)C)C(C)O4)[C@@H](O)[C@](C)(O)CCCCC/C=C/[C@@H]4CC(C)(C)O[C@@]4(O)C[C@H](O2)[C@H]3C)O1 (stereo partly drawn)
AC50 [9]: < 0.26 µM (active) | IC50 (Protein Wnt-3a): 0.0061 µM (active) | IC50 [10]: > 0.013 µM (active) | AC50 [11]: 20.1 µM (active)

Cc1ccc(S(=O)(=O)NC(=NC(S)=Nc2ccccc2)c2ccccc2)cc1
IC50 [12]: 14.1 µM (active) | IC50 (Caspase-3): 20.4 µM (active) | EC50 [13]: > 67.5 µM (inactive) | EC50 [14]: 2.54 µM (active) | IC50 [15]: 22.5 µM (active) | EC50 (H4): < 0.1 µM (active) | EC50 [16]: 0.308 µM (active) | EC50 [17]: 0.786 µM (active) | EC50 [18]: < 0.1 µM (inconclusive) | IC50 [19]: 4.8 µM (active)
